# Patent US20100285959A1, “HERBICIDAL MIXTURES” (priority 2006, published 2010)
# Experiments:
# giant foxtail (SETFA) [1] = experiment: Test 10 field trial, preemergence; format: in vivo, Setaria faberi; settings: 28 DAA
# Excerpt: (§1) Corn seeds (hybrid ‘Pioneer 33P65 RR’) were planted in mid spring season, 2.5 cm deep in a silt loam soil. Plots were 9.1 m long by 3.0 m wide with rows spaced 76 cm apart. The field was managed using conventional tillage practices. […] Results are the means of the three replicates.
# velvetleaf (ABUTH) [2] = experiment: Test 6 field trial, postemergence; format: in vivo, Abutilon theophrasti
# Excerpt: (§2) Corn seeds (hybrid ‘Pioneer 35Y62’) were planted in mid spring season, 3.8 cm deep in a silt loam soil having 4% organic matter and a pH of 5.8. Plots were 10.7 m long by 1.5 m wide with rows spaced 76 cm apart. Seeds were spaced 18 cm apart within the rows. The field was managed using conventional tillage practices. […] All treatments included a surfactant except glufosinate treatments, both alone and in combination. […] Results are summarized in Table 6 and are the means of the three replicates.
# common blackjack (BIDPI) = experiment: Test 11 field trial, preemergence; format: in vivo, Bidens pilosa; set-up: scale not given here; settings: alone or + atrazine 1500 or metolachlor 2500
# Excerpt: (§3) Corn seeds (hybrid ‘Pioneer 3041’) were planted in mid spring season, 5 cm deep in a clay soil having 2.6% organic matter and a pH of 5.6. Plots were 8 m long by 1.5 m wide with rows spaced 80 cm apart. Seeds were spaced 15 cm apart within the rows. The field was managed using conventional tillage practices. […] Treatments consisted of Compound 2 or
# (§4) Goosegrass was not evaluated 16 or 91 days after application.
# [3] = tested on: Ipomoea grandiflora (IPOGF); experiment: Test 11 field trial, preemergence; format: in vivo
# Excerpt: as §3, §4
# [4] = tested on: Pennsylvania smartweed (POLPY); experiment: Test 1 field trial, preemergence; format: in vivo, Polygonum pensylvanicum
# Excerpt: (§5) Corn seeds (hybrid ‘Pioneer 34N43’) were planted in mid spring season, 3.8 cm deep in a silt loam soil having 4.6% organic matter and a pH of 6. Plots were 10.7 m long by 1.5 m wide with rows spaced 76 cm apart. Seeds were spaced 18 cm apart within the rows. The field was managed using conventional tillage practices. […] Results are summarized in Table 1 and are the means of the three replicates. […] Colby's Equation (Colby, S. R. “Calculating Synergistic and Antagonistic Responses of Herbicide Combinations,” Weeds, 15(1), pp 20-22 (1967)) calculates the expected additive effect of herbicidal mixtures, and for two active ingredients is of the form:
# (§6) Pa+b=Pa+Pb−(PaPb/100) • wherein Pa+b is the percentage effect of the mixture expected from additive contribution of the individual components, • Pa is the observed percentage effect of the first active ingredient at the same use rate as in the mixture, and • Pb is the observed percentage effect of the second active ingredient at the same use rate as in the mixture.
# yellow foxtail (SETLU) [5] = experiment: Test 1 field trial, preemergence; format: in vivo, Setaria glauca; settings: 56 DAA
# Excerpt: as §5, §6
# giant foxtail (SETFA) [6] = experiment: Test 5 field trial, postemergence; format: in vivo, Setaria faberi
# Excerpt: (§7) Corn seeds (hybrid ‘Pioneer 38H69’) were planted in mid spring season, 5.1 cm deep in a silty clay loam soil having 3% organic matter and a pH of 6.5. Plots were 9.1 m long by 3.0 m wide with rows spaced 76 cm apart. The field was managed using conventional tillage practices. […] All treatments included a surfactant except glufosinate treatments, both alone and in combination. […] Results are summarized in Table 5 and are the means of the three replicates.
# yellow foxtail (SETLU) [7] = experiment: Test 6 field trial, postemergence; format: in vivo, Setaria glauca
# Excerpt: as §2
# alexandergrass (BRAPL) = experiment: Test 11 field trial, preemergence; format: in vivo, Brachiaria plantaginea; set-up: scale not given here; settings: alone or + atrazine 1500 or metolachlor 2500
# Excerpt: as §3, §4
# shepherd's purse (CAPBP) = experiment: Test 5 field trial, postemergence; format: in vivo, Capsella bursa-pastoris
# Excerpt: as §7
# [8] = tested on: ivyleaf morningglory (IPOHE); experiment: Test 10 field trial, preemergence; format: in vivo, Ipomoea hederacea; settings: 28 DAA
# Excerpt: as §1
# velvetleaf (ABUTH) [9] = experiment: Test 8 field trial, preemergence; format: in vivo, Abutilon theophrasti
# Excerpt: Corn seeds (hybrid ‘Pioneer 31G96’) were planted in mid spring season, 3.8 cm deep in a clay loam soil having 2% organic matter and a pH of 6.6. Plots were 6.1 m long by 3.0 m wide with rows spaced 76 cm apart. Seeds were spaced 15 cm apart within the rows. The field was managed using conventional tillage practices. […] A few of the weed species could not be evaluated at every timing. […] Results are the means of the three replicates.
# southern sandbur (CCHEC) = experiment: Test 11 field trial, preemergence; format: in vivo, Cenchrus echinatus; set-up: scale not given here; settings: alone or + atrazine 1500 or metolachlor 2500
# Excerpt: as §3, §4
# [10] = g a.i./ha: Cpd 2 50, S-Metolachlor 1870
# [11] = g a.i./ha: Cpd 2 100, Atrazine 1680, S-Metolachlor 1870
# [12] = g a.i./ha: Cpd 2 150, S-Metolachlor 1870
# [13] = 16 DAA, Cpd 2/Cpd 1 at 62 g a.i./ha
# [14] = 16 DAA, Cpd 2/Cpd 1 at 125 g a.i./ha
# [15] = 30 DAA, Cpd 2/Cpd 1 at 62 g a.i./ha
# [16] = 30 DAA, Cpd 2/Cpd 1 at 125 g a.i./ha
# [17] = 44 DAA, Cpd 2/Cpd 1 at 62 g a.i./ha
# [18] = 44 DAA, Cpd 2/Cpd 1 at 125 g a.i./ha
# [19] = 62 DAA, Cpd 2/Cpd 1 at 62 g a.i./ha
# [20] = 62 DAA, Cpd 2/Cpd 1 at 125 g a.i./ha
# [21] = 91 DAA, Cpd 2/Cpd 1 at 62 g a.i./ha
# [22] = 91 DAA, Cpd 2/Cpd 1 at 125 g a.i./ha
# [23] = 56 DAA, g a.i./ha: Cpd 2 50, S-Metolachlor 1870
# [24] = 56 DAA, g a.i./ha: Cpd 2 100, Atrazine 1680, S-Metolachlor 1870
# [25] = 56 DAA, g a.i./ha: Cpd 2 150, S-Metolachlor 1870
# [26] = 16 DAA, Cpd 2 30 g a.i./ha alone or with glufosinate 470 or glyphosate 1120
# [27] = 16 DAA, Cpd 2 60 g a.i./ha alone or with atrazine 1120, glufosinate 470 or glyphosate 1120
# [28] = 31 DAA, Cpd 2 30 g a.i./ha alone or with glufosinate 470 or glyphosate 1120
# [29] = 31 DAA, Cpd 2 60 g a.i./ha alone or with atrazine 1120, glufosinate 470 or glyphosate 1120
compound,measurement,setting,value
"COC(=O)c1nc(C2CC2)nc(N)c1Cl [Compound 2, methyl 6-amino-5-chloro-2-cyclopropyl-4-pyrimidinecarboxylate]",SETFA Obs,giant foxtail (SETFA) [1]; [10],13%
same,SETFA Obs,giant foxtail (SETFA) [1]; [11],7%
same,SETFA Obs,giant foxtail (SETFA) [1]; [12],20%
same,ABUTH Obs,"velvetleaf (ABUTH) [2]; 14 DAA, 30 g a.i./ha",0%
same,ABUTH Obs,"velvetleaf (ABUTH) [2]; 14 DAA, 60 g a.i./ha",0%
same,ABUTH Obs,"velvetleaf (ABUTH) [2]; 28 DAA, 30 g a.i./ha",0%
same,ABUTH Obs,"velvetleaf (ABUTH) [2]; 28 DAA, 60 g a.i./ha",0%
same,BIDPI Obs,common blackjack (BIDPI); [13],20
same,BIDPI Obs,common blackjack (BIDPI); [14],60
same,BIDPI Obs,common blackjack (BIDPI); [15],20
same,BIDPI Obs,common blackjack (BIDPI); [16],40
same,BIDPI Obs,common blackjack (BIDPI); [17],20
same,BIDPI Obs,common blackjack (BIDPI); [18],60
same,BIDPI Obs,common blackjack (BIDPI); [19],0
same,BIDPI Obs,common blackjack (BIDPI); [20],40
same,BIDPI Obs,common blackjack (BIDPI); [21],0
same,BIDPI Obs,common blackjack (BIDPI); [22],40
same,IPOGF Obs,"[3]; 16 DAA, Cpd 2/Cpd 1 at 62 g a.i./ha, alone or + atrazine 1500 or metolachlor 2500",0
same,IPOGF Obs,"[3]; 16 DAA, Cpd 2/Cpd 1 at 125 g a.i./ha, alone or + atrazine 1500 or metolachlor 2500",40
same,IPOGF Obs,"[3]; 30 DAA, Cpd 2/Cpd 1 at 62 g a.i./ha, alone or + atrazine 1500 or metolachlor 2500",40
same,IPOGF Obs,"[3]; 30 DAA, Cpd 2/Cpd 1 at 125 g a.i./ha, alone or + atrazine 1500 or metolachlor 2500",60
same,IPOGF Obs,"[3]; 44 DAA, Cpd 2/Cpd 1 at 62 g a.i./ha, alone or + atrazine 1500 or metolachlor 2500",0
same,IPOGF Obs,"[3]; 44 DAA, Cpd 2/Cpd 1 at 125 g a.i./ha, alone or + atrazine 1500 or metolachlor 2500",50
same,IPOGF Obs,"[3]; 62 DAA, 62 g a.i./ha, scale 0 to 100",0
same,IPOGF Obs,"[3]; 62 DAA, 125 g a.i./ha, scale 0 to 100",0
same,IPOGF Obs,"[3]; 91 DAA, 62 g a.i./ha, scale 0 to 100",0
same,IPOGF Obs,"[3]; 91 DAA, 125 g a.i./ha, scale 0 to 100",0
same,POLPY Obs,"[4]; 28 DAA, g a.i./ha: Cpd 2 50, S-Metolachlor 1870",0
same,POLPY Obs,"[4]; 28 DAA, g a.i./ha: Cpd 2 100, Atrazine 1680, S-Metolachlor 1870",0
same,POLPY Obs,"[4]; 28 DAA, g a.i./ha: Cpd 2 150, S-Metolachlor 1870",0
same,POLPY Obs,[4]; [23],0
same,POLPY Obs,[4]; [24],0
same,POLPY Obs,[4]; [25],0
same,SETLU Obs,yellow foxtail (SETLU) [5]; [10],0
same,SETLU Obs,yellow foxtail (SETLU) [5]; [11],0
same,SETLU Obs,yellow foxtail (SETLU) [5]; [12],0
same,SETFA Obs,giant foxtail (SETFA) [6]; [26],0%
same,SETFA Obs,giant foxtail (SETFA) [6]; [27],0%
same,SETFA Obs,giant foxtail (SETFA) [6]; [28],0%
same,SETFA Obs,giant foxtail (SETFA) [6]; [29],2%
same,SETLU Obs,"yellow foxtail (SETLU) [7]; 14 DAA, 30 g a.i./ha",0%
same,SETLU Obs,"yellow foxtail (SETLU) [7]; 14 DAA, 60 g a.i./ha",0%
same,SETLU Obs,"yellow foxtail (SETLU) [7]; 28 DAA, 30 g a.i./ha",0%
same,SETLU Obs,"yellow foxtail (SETLU) [7]; 28 DAA, 60 g a.i./ha",0%
same,BRAPL Obs,alexandergrass (BRAPL); [13],40
same,BRAPL Obs,alexandergrass (BRAPL); [14],70
same,BRAPL Obs,alexandergrass (BRAPL); [15],0
same,BRAPL Obs,alexandergrass (BRAPL); [16],75
same,BRAPL Obs,alexandergrass (BRAPL); [17],0
same,BRAPL Obs,alexandergrass (BRAPL); [18],60
same,BRAPL Obs,alexandergrass (BRAPL); [19],0
same,BRAPL Obs,alexandergrass (BRAPL); [20],0
same,BRAPL Obs,alexandergrass (BRAPL); [21],0
same,BRAPL Obs,alexandergrass (BRAPL); [22],0
same,CAPBP Obs,shepherd's purse (CAPBP); [26],25%
same,CAPBP Obs,shepherd's purse (CAPBP); [27],28%
same,CAPBP Obs,shepherd's purse (CAPBP); [28],0%
same,CAPBP Obs,shepherd's purse (CAPBP); [29],2%
same,IPOHE Obs,[8]; [10],13%
same,IPOHE Obs,[8]; [11],5%
same,IPOHE Obs,[8]; [12],20%
same,ABUTH Obs,"velvetleaf (ABUTH) [9]; 19 DAA, g a.i./ha: Cpd 2 50, S-Metolachlor 1870",28%
same,ABUTH Obs,"velvetleaf (ABUTH) [9]; 19 DAA, g a.i./ha: Cpd 2 100, Atrazine 1680, S-Metolachlor 1870",45%
same,ABUTH Obs,"velvetleaf (ABUTH) [9]; 19 DAA, g a.i./ha: Cpd 2 150, S-Metolachlor 1870",58%
same,ABUTH Obs,"velvetleaf (ABUTH) [9]; 29 DAA, g a.i./ha: Cpd 2 50, S-Metolachlor 1870",43%
same,ABUTH Obs,"velvetleaf (ABUTH) [9]; 29 DAA, g a.i./ha: Cpd 2 100, Atrazine 1680, S-Metolachlor 1870",68%
same,ABUTH Obs,"velvetleaf (ABUTH) [9]; 29 DAA, g a.i./ha: Cpd 2 150, S-Metolachlor 1870",90%
same,ABUTH Obs,velvetleaf (ABUTH) [9]; [23],18%
same,ABUTH Obs,velvetleaf (ABUTH) [9]; [24],60%
same,ABUTH Obs,velvetleaf (ABUTH) [9]; [25],85%
same,CCHEC Obs,southern sandbur (CCHEC); [13],0
same,CCHEC Obs,southern sandbur (CCHEC); [14],40
same,CCHEC Obs,southern sandbur (CCHEC); [15],0
same,CCHEC Obs,southern sandbur (CCHEC); [16],40
same,CCHEC Obs,southern sandbur (CCHEC); [17],0
same,CCHEC Obs,southern sandbur (CCHEC); [18],0
same,CCHEC Obs,southern sandbur (CCHEC); [19],0
same,CCHEC Obs,southern sandbur (CCHEC); [20],0
same,CCHEC Obs,southern sandbur (CCHEC); [21],0
same,CCHEC Obs,southern sandbur (CCHEC); [22],0
